Key:
[1] = target: T1, Serine/threonine-protein kinase PLK4 (Homo sapiens) (UniProt O00444); test: Selectivity interaction (KinomeScan (DiscoverX)) EUB0001049a PLK4; conditions: at 1 µM
T1 sequence (whole entry): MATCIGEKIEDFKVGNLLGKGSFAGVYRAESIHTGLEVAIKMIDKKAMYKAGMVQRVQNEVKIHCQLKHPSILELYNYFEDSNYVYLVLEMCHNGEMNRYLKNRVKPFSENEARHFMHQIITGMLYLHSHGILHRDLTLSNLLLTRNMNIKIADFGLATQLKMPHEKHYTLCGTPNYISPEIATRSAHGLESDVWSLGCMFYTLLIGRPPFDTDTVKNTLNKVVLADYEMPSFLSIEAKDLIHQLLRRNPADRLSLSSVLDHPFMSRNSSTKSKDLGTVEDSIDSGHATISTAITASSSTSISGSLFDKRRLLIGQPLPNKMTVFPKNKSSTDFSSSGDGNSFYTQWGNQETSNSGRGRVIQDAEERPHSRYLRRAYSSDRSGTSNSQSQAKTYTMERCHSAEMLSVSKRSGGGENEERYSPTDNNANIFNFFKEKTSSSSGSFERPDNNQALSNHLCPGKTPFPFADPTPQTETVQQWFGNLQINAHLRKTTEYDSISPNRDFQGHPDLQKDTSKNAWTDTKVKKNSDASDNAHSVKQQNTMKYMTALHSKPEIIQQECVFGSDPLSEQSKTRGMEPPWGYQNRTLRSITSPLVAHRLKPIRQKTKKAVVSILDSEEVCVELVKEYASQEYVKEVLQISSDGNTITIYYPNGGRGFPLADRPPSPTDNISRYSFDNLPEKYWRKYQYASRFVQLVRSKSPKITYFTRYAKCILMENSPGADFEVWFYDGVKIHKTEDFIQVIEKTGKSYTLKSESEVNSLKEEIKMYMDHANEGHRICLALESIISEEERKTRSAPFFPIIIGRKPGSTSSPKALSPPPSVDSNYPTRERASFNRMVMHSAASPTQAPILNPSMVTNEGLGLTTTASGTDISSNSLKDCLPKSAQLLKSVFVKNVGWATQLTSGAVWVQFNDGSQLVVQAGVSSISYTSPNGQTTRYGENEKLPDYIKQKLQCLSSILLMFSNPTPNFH

[2] = target: Myosin light chain kinase 2, skeletal/cardiac muscle (Homo sapiens) (UniProt Q9H1R3); test: Selectivity interaction (KinomeScan (DiscoverX)) EUB0000666a MYLK2; conditions: at 10 µM
Sequence of Myosin light chain kinase 2, skeletal/cardiac muscle (Homo sapiens) (Q9H1R3 whole entry): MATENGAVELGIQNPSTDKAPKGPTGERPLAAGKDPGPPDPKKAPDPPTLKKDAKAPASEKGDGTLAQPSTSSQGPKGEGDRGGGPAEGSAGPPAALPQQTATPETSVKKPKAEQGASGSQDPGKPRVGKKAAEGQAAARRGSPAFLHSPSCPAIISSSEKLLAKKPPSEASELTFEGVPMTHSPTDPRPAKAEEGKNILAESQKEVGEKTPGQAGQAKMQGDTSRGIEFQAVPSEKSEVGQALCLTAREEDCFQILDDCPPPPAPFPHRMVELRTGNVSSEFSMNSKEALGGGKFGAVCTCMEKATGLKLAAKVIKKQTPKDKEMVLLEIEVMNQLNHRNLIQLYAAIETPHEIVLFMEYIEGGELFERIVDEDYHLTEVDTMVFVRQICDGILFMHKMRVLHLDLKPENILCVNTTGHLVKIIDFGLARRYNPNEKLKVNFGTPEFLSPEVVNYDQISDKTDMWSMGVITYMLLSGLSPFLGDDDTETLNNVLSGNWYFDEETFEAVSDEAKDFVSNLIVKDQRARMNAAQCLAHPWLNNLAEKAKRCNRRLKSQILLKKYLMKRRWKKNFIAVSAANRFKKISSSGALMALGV

[3] = target: T2, Rhodopsin kinase GRK1 (Homo sapiens) (UniProt Q15835); test: Selectivity interaction (KinomeScan (DiscoverX)) EUB0000229b GRK1; conditions: at 10 µM
T2 sequence (whole entry): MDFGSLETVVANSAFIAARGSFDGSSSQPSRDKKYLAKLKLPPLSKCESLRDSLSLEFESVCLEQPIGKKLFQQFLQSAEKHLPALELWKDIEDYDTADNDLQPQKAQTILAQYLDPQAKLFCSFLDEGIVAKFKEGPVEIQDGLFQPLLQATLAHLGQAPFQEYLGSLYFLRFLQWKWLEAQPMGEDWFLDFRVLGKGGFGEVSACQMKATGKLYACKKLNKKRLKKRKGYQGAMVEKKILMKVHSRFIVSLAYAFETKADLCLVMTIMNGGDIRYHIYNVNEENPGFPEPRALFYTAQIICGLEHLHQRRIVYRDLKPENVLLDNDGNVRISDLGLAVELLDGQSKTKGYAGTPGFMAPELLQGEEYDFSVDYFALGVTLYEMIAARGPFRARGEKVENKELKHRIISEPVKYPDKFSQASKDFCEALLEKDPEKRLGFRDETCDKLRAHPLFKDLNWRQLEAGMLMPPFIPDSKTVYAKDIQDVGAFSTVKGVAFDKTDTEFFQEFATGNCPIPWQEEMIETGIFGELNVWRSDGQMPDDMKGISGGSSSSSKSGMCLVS

[4] = target: T3, Phosphatidylinositol 5-phosphate 4-kinase type-2 beta (Homo sapiens) (UniProt P78356); test: Selectivity interaction (KinomeScan (DiscoverX)) EUB0000618a PIP4K2B; conditions: at 10 µM
T3 sequence (whole entry): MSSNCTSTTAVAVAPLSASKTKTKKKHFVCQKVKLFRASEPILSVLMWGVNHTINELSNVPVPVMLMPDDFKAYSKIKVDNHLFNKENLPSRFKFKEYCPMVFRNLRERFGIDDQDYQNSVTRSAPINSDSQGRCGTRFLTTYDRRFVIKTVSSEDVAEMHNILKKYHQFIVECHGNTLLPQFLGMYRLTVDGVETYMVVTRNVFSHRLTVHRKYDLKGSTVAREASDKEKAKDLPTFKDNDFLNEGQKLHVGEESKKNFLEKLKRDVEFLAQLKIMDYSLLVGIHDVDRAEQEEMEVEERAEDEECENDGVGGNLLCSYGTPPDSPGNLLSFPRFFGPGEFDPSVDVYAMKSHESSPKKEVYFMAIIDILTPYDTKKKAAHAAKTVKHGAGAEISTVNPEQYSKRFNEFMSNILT

[5] = test system: Tyrosine-protein kinase ABL1 (Homo sapiens), P00519 [Q252H]; conditions: at 10 µM
[6] = target: T4, Dual specificity mitogen-activated protein kinase kinase 6 (Homo sapiens) (UniProt P52564); test: Selectivity interaction (ProQinase) EUB0000171b MAP2K6
T4 sequence (whole entry): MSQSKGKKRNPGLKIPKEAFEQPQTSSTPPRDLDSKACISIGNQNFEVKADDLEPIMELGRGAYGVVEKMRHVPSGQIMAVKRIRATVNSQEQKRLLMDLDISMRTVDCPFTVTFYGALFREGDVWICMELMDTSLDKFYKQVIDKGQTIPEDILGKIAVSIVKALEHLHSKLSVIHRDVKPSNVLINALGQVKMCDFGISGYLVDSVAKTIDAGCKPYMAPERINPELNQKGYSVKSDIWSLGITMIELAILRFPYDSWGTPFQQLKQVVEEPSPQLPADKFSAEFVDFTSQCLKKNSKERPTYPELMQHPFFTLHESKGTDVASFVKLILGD

For `COc1cc(Nc2nc(C)cc(-c3cnn4nc(OC)ccc34)n2)cc(C(F)(F)F)c1`, which % of control [1] is on record?
Its % of control is 49%.

For `O=C(NOC[C@H](O)CO)c1ccc(F)c(F)c1Nc1ccc(I)cc1F`, which % of control [2] is on record?
The % of control was 100%.

Which % binding [3] does the source give for `COc1cc(N(C)c2ccnc3ccc(C(F)(F)F)cc23)cc(OC)c1OC` here?
Its % binding is 68%.

How did the % of control [4] turn out when `O[C@H]1CC[C@H](Nc2ncc3nc(Nc4c(F)cc(F)cc4F)n([C@H]4CCOC4)c3n2)CC1` was run?
Its % of control is 98%.

With `Cc1cc([C@@H](C)Nc2ccccc2C(=O)O)c2nc(N3CCOCC3)cc(=O)n2c1` [AZD-6482] as the compound, how does the % of control [5] read?
The % of control was 100%.

`C=CC(=O)Nc1cccc(C(=O)Nc2ccc(Nc3cc(-c4[nH]c(SC)nc4C)ccn3)cc2)c1` was tested. Which % of control ([6]; at 1 µM) did it give?
Its % of control is 103%.

What about the % of control ([6]; at 5 µM) of the same compound?
The % of control was 126%.

Reference: ChEMBL document CHEMBL5465560, “Selectivity Literature for EUbOPEN Chemogenomic Library” (2024)
